In patent publication US20120237552A1, “Peptoid Agonists of Nerve Growth Factor and Their Use as Medicaments” (priority 2009, published 2012):

Tested on: TNFα, IL2, iNOS gene expression
Assay: Cytokine and iNOS gene expression in spleen of EAE mice (quantitative RT-PCR)
Format: in vivo
Conditions: end of the experiment, treated vs placebo
Description: Brains and spinal cords from mice obtained at the time of death were homogenized in RNA lysis buffer. Total RNA was extracted using the RNeasy Mini Kit (Qiagen, Chatwworth, Calif.) isolation system, including DNase treatment using the RNase-Free DNase Set (Quiagen). Total RNA (35 μg) was reverse transcribed using the Reverse Transcription System (High Capacity cDNA Archive Kit; Applied Biosystems, Foster City, Calif.). The real time reaction was conducted at 25° C. for 10 minutes, followed by 37° C. for 2 hours, and finally stored at 4° C. Primers and target-specific fluorescence-labeled TaqMan probes were purchased from Applied Biosystems (TaqMan Gene Expression assays). We used the TaqMan Universal Master Mix (Applied biosystems). Amplification of complementary DNA was performed on a DNA Engine Opticon 2 Real-Time System (MJ Research, Watertown, Mass.) using 0.9 μM for each primer and 0.25 μM for the probe and 20 ng complementary DNA. The reaction conditions were an initial 2 minutes at 50° C., followed by 10 minutes at 95° C. and 40 cycles of 15 seconds at 95° C. and 1 minute at 60° C. Each sample was run in triplicate, and in each plate the target and the endogenous control were amplified in different wells. The expression of the gene tested was quantified relative to the level of the housekeeping gene 18rRNA (Palacios et al., 2008).
To assess which was the effect of this compound in the peripheral immune response, the proliferative response against the immunizing antigen (MOG) in splenocytes of naïve animals and the cytokine profile in spleen cells from placebo and treated animals were evaluated. […] Gene expression of interleukin2 (IL2), Interferon γ (IFNγ), tumor necrosis factor α (TNFα), inducible nitric oxide synthase (iNOS) and interleukin 10 (IL10) was investigated by quantitative reverse transcriptase PCR at the end of the experiment in splenocytes from placebo and treated animals.

CC(C)CCN(CC(=O)N(CCCN1CCCC1=O)CC(N)=O)C(=O)CNCCc1ccccc1F [N35-4-8C, [N-(2-(2′-Fluorophenyl)ethyl)glycyl]-[N-(3-methylbutyl)glycyl]-N-[3-(2′-oxopyrrolidinyl)propyl]glycinamide]
significant decrease: gene expression of IL2 in spleen | gene expression of TNFα in spleen | gene expression of iNOS in spleen
